In PMC6396024, “Artemin and an Artemin-Derived Peptide, Artefin, Induce Neuronal Survival, and Differentiation Through Ret and NCAM” (Frontiers in Molecular Neuroscience, 2019):
Ends that are not written are not given here.

Experiments:
[1] = test system: FGFR; cerebellar granule neurons (CGNs); assay: Neurite outgrowth in CGNs with FGFR-inhibitor SU5402; assay type: cell-based, Wistar rat; settings: p < 0.01
Procedure: (§1) Cerebellar granule neurons (CGNs) were prepared from 7-day-old Wistar rat pups (Charles River Laboratories, Sulzfeld, Germany) as previously described ([Schousboe et al., 1989]). Briefly, pups were decapitated, and the cerebellum was removed and cleared from blood vessels and meninges in ice-cold modified Krebs-Ringer buffer. The cerebellum was dissociated by chopping and trypsinization. Cells were washed in Krebs-Ringer buffer containing DNAse I (Sigma, St. Louis, MO, United States) and soybean trypsin inhibitor (Sigma) to stop trypsinization, and the remaining tissue pieces were pelleted by centrifugation. Cells were then washed in Krebs-Ringer buffer containing Ca^2+ and Mg^2+ and re-suspended in appropriate Neurobasal^TM medium (Invitrogen, Taastrup, Denmark) with supplements depending on the experiment.
Cerebellar granule neurons CGNs were re-suspended in Neurobasal^TM medium supplemented with 2% (v/v) B27, 0.5% (v/v) glutamax, 100 U/ml penicillin, 100 μg/ml streptomycin, 0.4% (w/v) BSA, and 20 mM HEPES and were seeded in 8-well LabTek Permanox chamber slides (Nunc) at a density of 1 × 10^4 cells/cm^2. Various concentrations of ARTN, artefin, scrambled artefin, or reversed artefin were added to neurons immediately after seeding. For the RET inhibition assay, the inhibitory goat anti-mouse RET antibody (4.1 μg/ml; R&D systems, Abingdon, United Kingdom) or control goat IgG (4.1 μg/ml; Santa Cruz Biotechnology, Dallas, TX, United States) were added to neurons 1 h before stimulation with ARTN (0.042 nM) […]. For the competition assay between growth factor and mimetic peptide, a combination of ARTN (2.1 nM) and artefin (4.2 μM) was added to the cells immediately after seeding. […]
To estimate neurite outgrowth, neurons were fixated 24 h after stimulation and stained with rabbit anti-growth-associated-protein-43 (GAP-43) antibody (Chemicon International, Inc., Temecula, CA, United States) or anti-GFP antibody (for transfection experiment) overnight at 4°C followed by incubation with secondary Alexa-conjugated goat anti-rabbit antibodies (Invitrogen, Taastrup, Denmark). In case of experiments with plasmid transfection, the transfection efficiency was ca. 20% of total cells and the neurite outgrowth was evaluated only in GFP-positive, i.e., transfected, cells. […]
Computer-assisted fluorescent microscopy was performed using a Nikon Diaphot 300 inverted microscope (Nikon) equipped with a Nikon Plan 20× objective and coupled to a video camera (Grundig Electronics, Germany). For each condition in each experiment, including the experiment with transfections, images of approximately 200 cells were recorded in systematic series of fields of view, and neurite outgrowth was quantified using a stereological approach as previously described ([Rønn et al., 2000]). […]

[2] = test system: NCAM; cerebellar granule neurons (CGNs); assay: Neurite outgrowth in CGNs with NCAM knock down (NCAM shRNA); assay type: cell-based, Wistar rat; settings: 24 h, P2-d 8 μg/ml, ARTN 0.21 nM, artefin 1.4 μM
Procedure: as §1
(§2) To evaluate the involvement of NCAM and RET in neurite outgrowth induced by either ARTN or artefin, CGNs (3 × 10^6 per transfection) were transfected with 3 μg DNA using a Nucleofector^TM 2b device and a Rat Neuron Nucleofector Kit (Amaxa, Inc., Gaithersburg, MD, United States). A kinase-deleted dominant negative RET insert was obtained by direct PCR using a commercially available clone (IRAKp961P02132Q; RZPD, Berlin, Germany) encoding full-length mouse RET coding sequence 586–3807 nt. as template. The upper primer […] contained a NheI restriction site and Kozak sequence, and the lower primer […] encoded Streptag II and NotI restriction sites. The dominant negative RET insert and the pcDNA5/FRT expression vector containing the Flp-In system were cut with NheI and NotI restriction enzymes, purified, ligated using the Rapid DNA Ligation Kit (Roche, Basel, Switzerland), and transfected into One Shot TOP10 E. coli (Invitrogen, Taastrup, Denmark). E. coli colonies containing the dominant negative RET insert were identified by PCR, and one insert-positive colony was used for plasmid purification. The identity of the purified plasmid was verified by restriction cutting and sequencing of the insert. For NCAM knock down, we used a pENTR vector containing the shRNA expression cassette for NCAM knock down ([Hansen et al., 2007]). An empty vector was used as a control. To identify transfected neurons, all transfections were performed as co-transfections with 0.5 μg pEGFP-N1, an expression vector encoding the enhanced variant of green fluorescent protein (GFP; Clontech, Palo Alto, CA, United States). Transfected CGNs were seeded in Neurobasal^TM-A medium supplemented with 2% (v/v) B27, 5% (v/v) FCS, and 2 mM Glutamax at a density of 1 × 10^5 cells/cm^2.
(§3) To estimate neurite outgrowth, neurons were fixated 24 h after stimulation and stained with rabbit anti-growth-associated-protein-43 (GAP-43) antibody (Chemicon International, Inc., Temecula, CA, United States) or anti-GFP antibody (for transfection experiment) overnight at 4°C followed by incubation with secondary Alexa-conjugated goat anti-rabbit antibodies (Invitrogen, Taastrup, Denmark). In case of experiments with plasmid transfection, the transfection efficiency was ca. 20% of total cells and the neurite outgrowth was evaluated only in GFP-positive, i.e., transfected, cells. For representative pictures, cells were additionally co-stained with Hoechst 33258.
(§4) Computer-assisted fluorescent microscopy was performed using a Nikon Diaphot 300 inverted microscope (Nikon) equipped with a Nikon Plan 20× objective and coupled to a video camera (Grundig Electronics, Germany). For each condition in each experiment, including the experiment with transfections, images of approximately 200 cells were recorded in systematic series of fields of view, and neurite outgrowth was quantified using a stereological approach as previously described ([Rønn et al., 2000]).
(§5) FIGURE 7 Neuritogenic effect of ARTN and artefin in (A) dominant negative RET or (B) knock down NCAM-expressing CGNs. […]

[3] = test system: RET; cerebellar granule neurons (CGNs); assay: Neurite outgrowth in CGNs transfected with dominant negative RET (dnRET); assay type: cell-based, Wistar rat; settings: 24 h, P2-d 8 μg/ml, ARTN 0.21 nM, artefin 1.4 μM
Procedure: as §1, §2, §3, §4, §5

[4] = test system: cerebellar granule neurons (CGNs); assay: Survival assay of CGNs induced to undergo apoptosis by potassium withdrawal; assay type: cell-based, Wistar rat; settings: 50 ng/ml, 48 h, 5 mM KCl; p < 0.0001; positive control
Procedure: as §1
Cerebellar granule neurons were re-suspended in Neurobasal^TM-A medium supplemented with 2% (v/v) B27 (Invitrogen, Taastrup, Denmark), 0.5% (v/v) glutamax, 100 U/ml penicillin, 100 μg/ml streptomycin, and 40 mM KCl, and seeded at a density of 1 × 10^5 cells/well in 8-well LabTek Permanox chamber slides (Nunc, Roskilde, Denmark) coated with poly-L-lysine (10 μg/ml). To avoid proliferation of non-neuronal cells, cytosine-β-D-arabinofuranoside (Sigma) was added to cells 24 h after plating. CGNs were allowed to differentiate for 7 days in vitro (DIV) in the presence of 40 mM KCl before being induced to undergo apoptosis by changing the medium to one containing only 5 mM KCl (apoptotic medium) ([D’Mello et al., 1993]). At 7 DIV, cells were washed and stimulated with serially diluted ARTN or artefin diluted in the apoptotic medium. Three different controls were included; (1) cells grown in medium containing 40 mM KCl served as a positive control; (2) cells grown in medium containing 5 mM KCl served as a negative control; (3) cells grown in medium containing 5 mM KCl supplemented with 50 ng/ml insulin growth factor-1 (IGF-1) (Life Technology), a known anti-apoptotic factor for CGNs in this setup ([Galli et al., 1995]). After 48 h following the induction of apoptosis, cells were fixated in 4% formaldehyde for 30 min, and nuclear morphology was visualized with Hoechst 33258 staining (Invitrogen, Taastrup, Denmark) (Figure 2A). Images of cells were obtained using a Nikon Diaphot 200 fluorescent microscope equipped with a Nikon Plan 40× objective (Nikon, Tokyo, Japan) and coupled to a black-white video camera. Images of at least 1000 cells/well in different fields of view were analyzed, and the percentage of viable neurons was estimated as the ratio of live cells (non-pyknotic cells with dispersed chromatin) to the total number of neurons.
FIGURE 2 Effect of ARTN and artefin on survival of cerebellar granular neurons (CGNs) induced to undergo apoptosis. CGNs were differentiated for 7 days in the presence of 40 mM KCl before apoptosis was induced by potassium withdrawal. (A) Nuclear morphology of CGNs after Hoechst 33258 staining. […] Scale bar: 100 μm. Cells were grown for 48 h in media, containing 40 mM KCl, apoptotic medium (5 mM KCl) or apoptotic medium supplemented with 50 ng/ml IGF-1 (positive control) (B), serially diluted ARTN (C), or artefin (D). Each experiment was performed in the presence of the three controls (40 mM KCl, 5 mM KCl, and 5 mM KCl plus IGF-1), and the survival effect of the growth factor and the peptide was compared to its own apoptotic control (5 mM KCl). Results from the five experiments are expressed as percentage of 40 mM KCl control set at 100% and presented as mean ± SEM. The anti-apoptotic effect of ARTN and artefin was tested using Student’s paired t-test, where ^∗p < 0.05; ^∗∗p < 0.01; ^∗∗∗p < 0.001; ^∗∗∗∗p < 0.0001.

[5] = test system: cerebellar granule neurons (CGNs); assay: Neurite outgrowth assay in CGNs; assay type: cell-based, Wistar rat; settings: 24 h; ARTN 0.013–2.1 nM; artefin 0.16–37.9 μM; one-way ANOVA
Procedure: as §1
Cerebellar granule neurons CGNs were re-suspended in Neurobasal^TM medium supplemented with 2% (v/v) B27, 0.5% (v/v) glutamax, 100 U/ml penicillin, 100 μg/ml streptomycin, 0.4% (w/v) BSA, and 20 mM HEPES and were seeded in 8-well LabTek Permanox chamber slides (Nunc) at a density of 1 × 10^4 cells/cm^2. Various concentrations of ARTN, artefin, scrambled artefin, or reversed artefin were added to neurons immediately after seeding. For the RET inhibition assay, the inhibitory goat anti-mouse RET antibody (4.1 μg/ml; R&D systems, Abingdon, United Kingdom) or control goat IgG (4.1 μg/ml; Santa Cruz Biotechnology, Dallas, TX, United States) were added to neurons 1 h before stimulation with ARTN (0.042 nM) […]. For the competition assay between growth factor and mimetic peptide, a combination of ARTN (2.1 nM) and artefin (4.2 μM) was added to the cells immediately after seeding. To inhibit Fibroblast growth factor receptor (FGFR) pharmacologically, inhibitor of FGFR, SU5402 (Sigma), was added to the growth medium in serial dilutions of 20, 40, and 80 μM immediately after plating of CGNs, followed by addition of either P2-d (8 μg/ml), ARTN (0.21 nM), or artefin (1.4 μM) 1 h after the plating.
as §3, §4
FIGURE 3 Neurite outgrowth induced by ARTN (A), artefin-dendrimer (B), and artefin-monomer (C) in CGNs. Cells were stimulated with ARTN (0.013, 0.042, 0.13, 0.42, and 2.1 nM) or artefin (0.16, 0.47, 1.4, 4.2, 12.6, and 37.9 μM) for 24 h. For the unstimulated control, the absolute length of neurites was 11.47 ± 1.5 μm. Results from four independent experiments are expressed as percentage of untreated control set to 100% and presented as mean ± SEM. The mean neurite outgrowth lengths were compared using one-way ANOVA for repeated measurements. The effect of individual concentrations of ARTN and artefin was compared to control using one-way ANOVA with Dunnett’s post-hoc test, ^∗p < 0.05; ^∗∗p < 0.01. […]

[6] = molecular target: T1, recombinant human GFRα3/Fc (human, UniProt O60609 32-374); assay: SPR; Biacore 2000, 25°C, HBS-EP (10 mM HEPES pH 7.4, 150 mM NaCl, 3 mM EDTA, 0.005% P20); ARTN (~2300 RU) or artefin (~1600 RU) amine-coupled on a CM4 chip; serially diluted GFRα3/Fc or NCAM Ig1–3 injected at 20 μl/min; 1:1 interaction model or steady-state affinity analysis; settings: both partners purified
T1 construct: GDNF family receptor alpha-3 (GFRα3), human; Commercial Fc chimera; also called GFL receptor α3; source: bought: R&D Systems
T1 sequence (looked up): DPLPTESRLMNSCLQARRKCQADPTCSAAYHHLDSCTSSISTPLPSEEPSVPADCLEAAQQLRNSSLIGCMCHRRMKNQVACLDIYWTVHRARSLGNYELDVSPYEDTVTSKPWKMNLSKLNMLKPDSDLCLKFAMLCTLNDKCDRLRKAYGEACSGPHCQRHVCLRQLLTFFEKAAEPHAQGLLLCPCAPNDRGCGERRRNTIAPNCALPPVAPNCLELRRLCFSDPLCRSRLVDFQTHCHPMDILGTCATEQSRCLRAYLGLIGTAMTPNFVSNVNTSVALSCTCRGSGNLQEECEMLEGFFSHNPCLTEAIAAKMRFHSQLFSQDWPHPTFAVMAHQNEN

[7] = molecular target: T2, recombinant rat NCAM Ig1–3 (rat, UniProt P13596 20-308); assay: as above; settings: both partners purified
T2 construct: neural cell adhesion molecule (NCAM), rat, Ig1–3 domains; also called NCAM Ig1–3 domain; source: recombinant, produced as described previously (Soroka et al., 2003)
T2 sequence (P13596 20-308): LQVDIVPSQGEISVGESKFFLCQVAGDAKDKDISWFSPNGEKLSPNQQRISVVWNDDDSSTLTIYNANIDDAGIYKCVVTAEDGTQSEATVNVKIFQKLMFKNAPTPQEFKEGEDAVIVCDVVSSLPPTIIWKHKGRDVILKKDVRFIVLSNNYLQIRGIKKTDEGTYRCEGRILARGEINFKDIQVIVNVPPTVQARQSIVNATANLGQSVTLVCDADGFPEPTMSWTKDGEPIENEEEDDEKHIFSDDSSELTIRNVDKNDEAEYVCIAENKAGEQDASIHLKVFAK

Molecule: GRILARGEINFK [P2-d, reference compound]
- neurite outgrowth with 80 μM FGFR inhibitor ([1]; P2-d 8 μg/ml with 80 μM inhibitor): significantly attenuated
- neurite outgrowth in the absence of SU5402 ([1]; P2-d 8 μg/ml): promoted neurite outgrowth in the absence of SU5402 (p < 0.01)
- neurite outgrowth in NCAM knock down neurons ([2]; NCAM shRNA): eliminated in neurons transfected with NCAM shRNA (p < 0.01
- neurite outgrowth in mock-transfected neurons ([2]; empty vector, versus control): increased neurite outgrowth in mock-transfected neurons (p < 0.05)
- neurite outgrowth in dnRET-transfected neurons ([3]; dnRET): significantly increased the level of neurite outgrowth in mock-transfected neurons as well as in neurons transfected with the vector encoding dnRET (p < 0.05
- neurite outgrowth in mock-transfected neurons ([3]; empty vector, versus control): significantly increased the level of neurite outgrowth in mock-transfected neurons

Molecule: IGF-1: insulin growth factor-1 (Life Technology), a known anti-apoptotic factor for CGNs [reference compound]
- neuronal survival (rescue from apoptosis by potassium withdrawal) [4]: significantly increased the number of CGNs rescued from the apoptosis

Molecule: RSPHDLSLASLLGAG [artefin in monomer form]
- overall neuritogenic effect [5]: did not demonstrate any significant neurite outgrowth

B1: artefin, ARTN-derived peptide synthesized as a tetramer (dendrimer) on a lysine backbone (peptide)
peptide: RSPHDLSLASLLGAG
modifications: also: tetramer: four monomers coupled to a lysine backbone
notes: amino acids 166-180 of human ARTN (UniProt D3DPX9), heel region; also called artefin-dendrimer; artefin-d; source: synthetic peptide (Schafer-N, Copenhagen; solid-phase Fmoc chemistry)
- Kd [6]: 2.9 nM
- Kd [7]: 2800 nM
